Measurements published in publication PMC11874007, “Switching Roles—Exploring Concentration-Dependent Agonistic versus Antagonistic Behavior of Integrin Ligands” (Journal of Medicinal Chemistry, 2025).
“And” between values parts separate entries of the source, which are not always exact repeats. Equal values may be shown once.

Columns and labels:
human αvβ6-integrin = molecular target: T1, human αvβ6-integrin (Homo sapiens, UniProt P06756+P18564); assay: ELISA-type solid-phase binding assay: soluble αvβ6 competing for immobilized LAP (TGF-β); conditions: competitive ELISA-type assay, referenced to internal standard RTDLDSLRT
T1 construct: purchased R&D 3817-AV-050

human α5β1-integrin = molecular target: T2, human α5β1-integrin (Homo sapiens, UniProt P05556+P08648); assay: ELISA-type solid-phase binding assay: soluble α5β1 competing for immobilized fibronectin; conditions: competitive ELISA-type assay, referenced to internal standard cilengitide (L2)
T2 construct: purchased R&D 3230-A5-050
Procedure: Prior to the biological evaluation of the ligands, their specificity and subtype-selective affinity was analyzed by an ELISA (enzyme-linked immune sorbent assay)-type solid-phase ligand binding assay[59] by measuring the competitive binding of soluble purified integrins in the presence of the respective ligands to plate-immobilized purified ECM proteins, as described in Experimental Section: vitronectin (for αvβ3-directed ligands), fibronectin (for α5β1-directed ligands), or the latency-associated peptide (LAP) of transforming growth factor-β (TGF-β) (for αvβ6-directed ligands). Then, we determined whether Cy5.5 conjugation of ligands led to altered ligand binding affinities and integrin subtype selectivity compared to the unlabeled compounds. In the following, we describe in detail the alterations detected.
(3) 2.0 μg/mL mouse-anti-human CD51/61 (BD Biosciences, Franklin Lakes, New Jersey, USA; #555504). (4) 2.0 μg/mL anti-mouse IgG-POD (Sigma-Aldrich, #A9044-2ML). Integrin αvβ6: (1) 0.4 μg/mL LAP (TGF-β) (R&D, #246-LP-025), (2) 0.5 μg/mL human αvβ6 (R&D, #3817-AV-050), (3) 1:500 dilution mouse-anti-human αv (MAB1978) (Merck Millipore, #MAB1978), (4) 2.0 μg/mL anti-mouse IgG-POD (Sigma-Aldrich, #A9044-2ML). Integrin α5β1: (1) 0.5 μg/mL human fibronectin (Sigma-Aldrich, #F0895-1MG), (2) 2.0 μg/mL human α5β1 (R&D, 3230-A5-050), (3) 1.0 μg/mL mouse-anti-human CD49e (BD Biosciences, #555651), (4) 2.0 μg/mL anti-mouse IgG-POD (Sigma-Aldrich, #A9044-2 ML). For Western blot analysis, the following antibodies were used: (p-)p44/42^(erk-1/2) (1) 1:300 dilution of rabbit-anti-human p44/42^(erk-1/2) antibody (Cell Signaling Technology, Frankfurt, Germany, #9102) in 3% (w/v) bovine serum albumin (BSA)/TBS-T, (2) 1:5,000 dilution goat-anti-rabbit horseradish-conjugated secondary antibody in 1% (w/v) BSA/TBS-T. Phospho-p44/42^(erk-1/2): (1) 1:200 dilution rabbit-anti-human p44/42^(erk-1/2) (Thr202/Tyr204) antibody (Cell Signaling Technology, #9101) in 3% (w/v) BSA/TBS-T, (2) 1:5,000 dilution goat-anti-rabbit horseradish-conjugated secondary antibody in 1% (w/v) BSA/TBS-T. FAK: (1) 1:300 dilution mouse-anti-human FAK antibody (Cell Signaling Technology, #9102) in 3% (w/v) BSA/TBS-T, (2) 1:5,000 dilution goat-anti-mouse horseradish-conjugated secondary antibody in 1% (w/v) BSA/TBS-T. Phospho-FAK: (1) 1:300 dilution mouse-anti-human p-FAK antibody (Cell Signaling Technology) in 3% (w/v) BSA/TBS-T, (2) 1:5,000 dilution goat-antimouse horseradish-conjugated secondary antibody in 1% (w/v) BSA/TBS-T. Differences in blotting efficiency and protein loading were normalized by using a primary antibody against glyceraldehyde-3-phosphate dehydrogenase (GAPDH, 1:10,000 dilution in 1% (w/v) BSA/TBS-T, at RT for 45 min (Millipore, Schwalbach, Germany) and a secondary horseradish-conjugated goat-anti-mouse antibody (1:10,000 dilution in 1% (w/v) BSA/TBS-T, 40 min at RT).
The integrin binding assay was done to assess the specificity and subtype-selective affinity of L1–L5 and their respective Cy5.5-conjugated ligands by using isolated and purified integrins in cell-free ligand binding assays, as previously published.[59]Table 2 summarizes the used ECM ligands, integrins, and antibodies. In brief, flat-bottom 96-well plates were coated overnight at 4 °C with the natural ECM integrin ligands, vitronectin (for αvβ3-directed ligands), fibronectin (for α5β1-directed ligands), or LAP of TGF-β1 (for αvβ6-directed ligands) (100 μL/well in buffer containing 15 mM Na2CO3, 35 mM NaHCO3, pH 9.6). Subsequently, each well was washed in PBS, 0.01% (v/v) Tween 20, 137 mM NaCl, 2.7 mM KCl, 10 mM Na2HPO4, 2 mM KH2PO4, pH 7.4 (PBS-T), and blocked for unspecific binding events for 1 h at RT in 20 mM Tris–HCl, pH 7.5, 150 mM NaCl, 1 mM CaCl2, 1 mM MgCl2, 1 mM MnCl2, and 1% (w/v) BSA. Meanwhile, dilution series of the different integrin ligands and the internal standards were prepared, ranging from 20 μM to 256 pM in 1:5 dilution steps. […]

human αvβ3-integrin = molecular target: T3, human αvβ3-integrin (Homo sapiens, UniProt P05106+P06756); assay: ELISA-type solid-phase binding assay: soluble αvβ3 competing for immobilized vitronectin; conditions: competitive ELISA-type assay, referenced to internal standard cilengitide (L2)
T3 construct: purchased R&D 3050-AV-050

[1] = test system: M21 (αvβ3+), HN (αvβ6+), RKO (α5β1+) cells; assay: Time-dependent cellular uptake of Cy5.5-labeled ligands in cells overexpressing the targeted integrin; format: cell-based; conditions: state within 30 min, Cy5.5-conjugated ligands, target integrin-expressing cells
Source text: For intracellular drug delivery, integrin ligands designed as drug-conjugated vehicles have to be easily and selectively internalized by tumor cells (over)expressing the respective targeted integrin subtype. […] It should be noted here that HN, OV-MZ-6, and RKO cells also express low αvβ3 expression levels.
Figure 7 Cellular uptake of Cy5.5-labeled integrin ligands. […] Nuclei were costained with Hoechst 33342 (blue signal) and cell membranes with CellMask Green (green signal). Merge of stains (yellow signal) indicated colocalization of ligands at the cell membrane. Scale bar: 50 μm.
Microchamber cell culture slides were coated with fibronectin (2 μg/mL), followed by cell seeding at a density of 50,000 cells/well. After 24 h of cultivation, cells were treated with integrin ligands L1-Cy5.5 to L5-Cy5.5 (1 μM in 0.01% (w/v) CaCl2 and 0.1% (w/v) BSA in PBS; 250 μL/well) for 3, 30, 60, or 300 min at 37 °C. The cells were washed in PBS/0.01% (w/v) CaCl2 (6 × 800 μL) and the fluorescence signal intensity recorded using the LSM 700 microscope (Zeiss, Jena, Germany). CellMask Green Plasma Membrane Stain was used to stain the cell membrane; nuclei were stained with Hoechst 33342.

Molecule: C#CCCC(=O)NCCCOc1cc(C)c(C(=O)N[C@@H](CNC(=O)CNC(=O)c2cccc(NC(=N)N)c2)C(=O)O)c(C)c1 [L5, (S)-2-(2,6-Dimethyl-4-(3-(pent-4-ynamido)propoxy)benzamido)-3-(2-(3-guanidinobenzamido)acetamido)propanoic Acid]
- IC50 (human αvβ6-integrin): > 1000 nM
- IC50 (human α5β1-integrin): 1.2 nM and 1.24 nM
- IC50 (human αvβ3-integrin): > 1000 nM

Molecule: c(FRGDLAFp(NMe)K) [L3]
- Endocytosis of Cy5.5-conjugated ligand [1]: already completed

Molecule: C#CCCC(=O)NCCCOc1ccc(C(=O)N[C@H](CC(=O)O)Cc2ccc(OCCCNc3cc(OC)ccn3)cc2)cc1 [L1, (S)-4-(4-(3-((4-Methoxypyridin-2-yl)amino)propoxy)phenyl)-3-(4-(3-(pent-4-ynamido)propoxy)benzamido)butanoic Acid]
- IC50 (human αvβ6-integrin): 152 ± 60.8 nM
- IC50 (human α5β1-integrin): 73.4 ± 16.6 nM
- Endocytosis of Cy5.5-conjugated ligand [1]: started within 30 min
- IC50 (human αvβ3-integrin): 1.1 ± 0.27 nM
